Values joined by “and” are separate entries in the source; they are usually repeats but may differ in a detail not shown here. Identical values can stand only once. Like-named read-outs stand apart in the source and are kept apart here.
How the values were obtained:
CCRF-CEM = experiment: NCI cytotoxicity screen; format: cell-based, human; settings: for GI50: Homo sapiens
MOLT-4 = experiment: NCI cytotoxicity screen; format: cell-based, human; settings: for GI50: Homo sapiens
SR = experiment: NCI cytotoxicity screen; format: cell-based, human; settings: for GI50: Homo sapiens
EKVX = experiment: NCI cytotoxicity screen; format: cell-based, human; settings: for GI50: Homo sapiens
HOP-62 = experiment: NCI cytotoxicity screen; format: cell-based, human; settings: for GI50: Homo sapiens
HOP-92 = experiment: NCI cytotoxicity screen; format: cell-based, human
NCI-H226 = experiment: NCI cytotoxicity screen; format: cell-based, human; settings: for GI50: Homo sapiens
NCI-H23 = experiment: NCI cytotoxicity screen; format: cell-based, human; settings: for GI50: Homo sapiens
NCI-H322M = experiment: NCI cytotoxicity screen; format: cell-based, human; settings: for GI50: Homo sapiens
NCI-H460 = experiment: NCI cytotoxicity screen; format: cell-based, human; settings: for GI50: Homo sapiens
NCI-H522 = experiment: NCI cytotoxicity screen; format: cell-based, human; settings: for GI50: Homo sapiens
HCC-2998 = experiment: NCI cytotoxicity screen; format: cell-based, human; settings: for GI50: Homo sapiens, HCC 2998
HCT-15 = experiment: NCI cytotoxicity screen; format: cell-based, human; settings: for GI50: Homo sapiens
HT29 = experiment: NCI cytotoxicity screen; format: cell-based, human; settings: HT-29; for GI50: Homo sapiens
SF-268 = experiment: NCI cytotoxicity screen; format: cell-based, human; settings: for GI50: Homo sapiens
SF-295 = experiment: NCI cytotoxicity screen; format: cell-based, human; settings: for GI50: Homo sapiens
SF-539 = experiment: NCI cytotoxicity screen; format: cell-based, human; settings: for GI50: Homo sapiens
SNB-75 = experiment: NCI cytotoxicity screen; format: cell-based, human; settings: for GI50: Homo sapiens
U251 = experiment: NCI cytotoxicity screen; format: cell-based, human; settings: U-251; for GI50: Homo sapiens
LOX IMVI = experiment: NCI cytotoxicity screen; format: cell-based, human; settings: for GI50: Homo sapiens
MALME-3M = experiment: NCI cytotoxicity screen; format: cell-based, human; settings: for GI50: Homo sapiens, Malme-3M
M14 = experiment: NCI cytotoxicity screen; format: cell-based, human; settings: for GI50: Homo sapiens
MDA-MB-435 = experiment: NCI cytotoxicity screen; format: cell-based, human; settings: for GI50: Homo sapiens
SK-MEL-28 = experiment: NCI cytotoxicity screen; format: cell-based, human; settings: for GI50: Homo sapiens
UACC-257 = experiment: NCI cytotoxicity screen; format: cell-based, human; settings: for GI50: Homo sapiens
OVCAR-3 = experiment: NCI cytotoxicity screen; format: cell-based, human; settings: for GI50: Homo sapiens, OVCAR-3
OVCAR-5 = experiment: NCI cytotoxicity screen; format: cell-based, human; settings: for GI50: Homo sapiens, OVCAR-5
OVCAR-8 = experiment: NCI cytotoxicity screen; format: cell-based, human; settings: for GI50: Homo sapiens
NCI/ADR-RES = experiment: NCI cytotoxicity screen; format: cell-based, human; settings: for GI50: Homo sapiens, five-dose
SK-OV-3 = experiment: NCI cytotoxicity screen; format: cell-based, human; settings: for GI50: Homo sapiens
ACHN = experiment: NCI cytotoxicity screen; format: cell-based, human; settings: for GI50: Homo sapiens
SN12C = experiment: NCI cytotoxicity screen; format: cell-based, human; settings: for GI50: Homo sapiens, SN12C
UO-31 = experiment: NCI cytotoxicity screen; format: cell-based, human; settings: for GI50: Homo sapiens
PC-3 = experiment: NCI cytotoxicity screen; format: cell-based, human; settings: for GI50: Homo sapiens
DU-145 = experiment: NCI cytotoxicity screen; format: cell-based, human; settings: for GI50: Homo sapiens
HS 578T = experiment: NCI cytotoxicity screen; format: cell-based, human; settings: for GI50: Homo sapiens, Hs-578T
BT-549 = experiment: NCI cytotoxicity screen; format: cell-based, human; settings: for GI50: Homo sapiens
T-47D = experiment: NCI cytotoxicity screen; format: cell-based, human; settings: for GI50: Homo sapiens, T47D
[1] = test system: Leukemia subpanel tumor cell lines; experiment: NCI cytotoxicity screen, subpanel; format: cell-based, human; settings: for CC50: read-out: LC50; for GI50 / TGI: subpanel value, Leukemia
[2] = test system: NSC lung cancer subpanel tumor cell lines; experiment: NCI cytotoxicity screen, subpanel; format: cell-based, human; settings: for CC50: read-out: LC50; for GI50 / TGI: subpanel value, NSC lung cancer
[3] = test system: Colon cancer subpanel tumor cell lines; experiment: NCI cytotoxicity screen, subpanel; format: cell-based, human; settings: for CC50: read-out: LC50; for GI50 / TGI: subpanel value, Colon cancer
[4] = test system: CNS cancer subpanel tumor cell lines; experiment: NCI cytotoxicity screen, subpanel; format: cell-based, human; settings: for CC50: read-out: LC50; for GI50 / TGI: subpanel value, CNS cancer
[5] = test system: Ovarian cancer subpanel tumor cell lines; experiment: NCI cytotoxicity screen, subpanel; format: cell-based, human; settings: for CC50: read-out: LC50; for GI50 / TGI: subpanel value, Ovarian cancer
59 cancer cell lines = experiment: NCI cytotoxicity screen, full panel; format: cell-based, human
HL-60(TB) = experiment: cells; settings: Homo sapiens
[6] = read-out: GI50 MG_MID, full panel mean-graph midpoint
[7] = read-out: LC50 MG_MID, full panel mean-graph midpoint

## CCN(CC)c1ccc(C=NNC(=O)CSc2nc3ccccc3c(=O)n2Cc2ccc(S(N)(=O)=O)cc2)c(O)c1 [Compound 5, 4-((2-((2-(2-(4-(Diethylamino)-2-hydroxybenzylidene)hydrazineyl)-2-oxoethyl)thio)-4-oxoquinazolin-3(4H)-yl)methyl)benzenesulfonamide]
CCRF-CEM; 10.0 μM one dose
  GI %: 90%
CCRF-CEM
  GI50: 0.196 µM
MOLT-4; 10.0 μM one dose
  GI %: 89%
MOLT-4
  GI50: 0.372 µM
SR; 10.0 μM one dose
  GI %: 90%
SR
  GI50: 0.212 µM
EKVX; 10.0 μM one dose
  GI %: 65%
EKVX
  GI50: 0.65 µM
HOP-62; 10.0 μM one dose
  GI %: 79%
HOP-62
  GI50: 0.961 µM
HOP-92; 10.0 μM one dose
  GI %: 42%
NCI-H226; 10.0 μM one dose
  GI %: 69%
NCI-H226
  GI50: 0.894 µM
NCI-H23; 10.0 μM one dose
  GI %: 61%
NCI-H23
  GI50: 1.96 µM
NCI-H322M; 10.0 μM one dose
  GI %: 67%
NCI-H322M
  GI50: 0.575 µM
NCI-H460; 10.0 μM one dose
  GI %: 94%
NCI-H460
  GI50: 0.424 µM
NCI-H522; 10.0 μM one dose
  GI %: 126%
NCI-H522
  GI50: 2.4 µM
HCC-2998; 10.0 μM one dose, HCC-2998
  GI %: 80%
HCC-2998
  GI50: 0.882 µM
HCT-15; 10.0 μM one dose
  GI %: 53%
HCT-15
  GI50: 3.62 µM
HT29; 10.0 μM one dose
  GI %: 68%
HT29
  GI50: 3.01 µM
SF-268; 10.0 μM one dose
  GI %: 82%
SF-268
  GI50: 0.766 µM
SF-295; 10.0 μM one dose
  GI %: 80%
SF-295
  GI50: 1.47 µM
SF-539; 10.0 μM one dose
  GI %: 72%
SF-539
  GI50: 1.26 µM
SNB-75; 10.0 μM one dose
  GI %: 62%
SNB-75
  GI50: 2.86 µM
U251; 10.0 μM one dose
  GI %: 76%
U251
  GI50: 0.51 µM
LOX IMVI; 10.0 μM one dose
  GI %: 99%
LOX IMVI
  GI50: 0.387 µM
MALME-3M; 10.0 μM one dose, MALME-3M
  GI %: 69%
MALME-3M
  GI50: 1.09 µM
M14; 10.0 μM one dose
  GI %: 96%
M14
  GI50: 0.452 µM
MDA-MB-435; 10.0 μM one dose
  GI %: 87%
MDA-MB-435
  GI50: 2.07 µM
SK-MEL-28; 10.0 μM one dose
  GI %: 67%
SK-MEL-28
  GI50: 1.62 µM
UACC-257; 10.0 μM one dose
  GI %: 87%
UACC-257
  GI50: 3.03 µM
OVCAR-3; 10.0 μM one dose, IGROV-3
  GI %: 85%
OVCAR-3
  GI50: 0.287 µM
OVCAR-5; 10.0 μM one dose, IGROV-5
  GI %: 45%
OVCAR-5
  GI50: 2.09 µM
OVCAR-8; 10.0 μM one dose
  GI %: 80%
OVCAR-8
  GI50: 0.932 µM
NCI/ADR-RES; 10.0 μM one dose
  GI %: 13%
NCI/ADR-RES
  GI50: > 100 µM
SK-OV-3; 10.0 μM one dose
  GI %: 79%
SK-OV-3
  GI50: 1.32 µM
ACHN; 10.0 μM one dose
  GI %: 67%
ACHN
  GI50: 1.58 µM
SN12C; 10.0 μM one dose, SN-12C
  GI %: 68%
SN12C
  GI50: 1.93 µM
UO-31; 10.0 μM one dose
  GI %: 54%
UO-31
  GI50: 2.89 µM
PC-3; 10.0 μM one dose
  GI %: 51%
PC-3
  GI50: 0.829 µM
DU-145; 10.0 μM one dose
  GI %: 62%
DU-145
  GI50: 0.944 µM
HS 578T; 10.0 μM one dose, HS-578T
  GI %: 37%
HS 578T
  GI50: 2.11 µM
BT-549; 10.0 μM one dose
  GI %: 67%
BT-549
  GI50: 2.68 µM
T-47D; 10.0 μM one dose, T-47D
  GI %: 94%
T-47D
  GI50: 0.925 µM
[1]; Homo sapiens
  CC50: > 100 µM
  GI50: 0.4 µM
[1]
  GI50: 0.384 µM
  TGI: 68.371 µM
[2]; Homo sapiens
  CC50: > 100 µM
  GI50: 1.1 µM
[2]
  GI50: 1.06 µM
  TGI: c (Compounds showed values > 100 μM)
[3]; Homo sapiens
  CC50: > 100 µM
  GI50: 1.6 µM
[3]
  GI50: 1.56 µM
  TGI: c (Compounds showed values > 100 μM)
[4]; Homo sapiens
  CC50: > 100 µM
  GI50: 1.5 µM
[4]
  GI50: 1.49 µM
  TGI: c (Compounds showed values > 100 μM)
[5]; Homo sapiens
  CC50: > 100 µM
  GI50: 15.1 µM
[5]
  GI50: 15.1 µM
  TGI: c (Compounds showed values > 100 μM)
59 cancer cell lines; 10.0 μM one dose, 59 cell lines
  MG% (mean growth percent): 23.5% and 23.46%
59 cancer cell lines; Homo sapiens, read-out: GI50 MG_MID, full panel mean-graph midpoint
  GI50: 1 µM
59 cancer cell lines; Homo sapiens, read-out: LC50 MG_MID, full panel mean-graph midpoint
  CC50: > 100 µM
59 cancer cell lines; full panel mean-graph midpoint
  TGI MG_MID: 89.2 µM and 89.24 µM
59 cancer cell lines; [6]
  GI50: 1.1 µM
59 cancer cell lines; [7]
  CC50: > 100 µM
HL-60(TB)
  GI50: 0.412 µM

## C#Cc1cccc(Nc2ncnc3cc(OCCOC)c(OCCOC)cc23)c1 [Erlotinib, reference compound]
CCRF-CEM
  GI50: 15.8 µM
MOLT-4
  GI50: 5.01 µM
SR
  GI50: 6.3 µM
EKVX
  GI50: 0.005 µM
HOP-62
  GI50: 12.6 µM
HOP-92; Homo sapiens
  GI50: 6.3 µM
NCI-H226
  GI50: 6.3 µM
NCI-H23
  GI50: 19.9 µM
NCI-H322M
  GI50: 0.05 µM
NCI-H460
  GI50: 5.01 µM
NCI-H522
  GI50: 1 µM
HCC-2998
  GI50: 79.3 µM
HCT-15
  GI50: 3.16 µM
HT29
  GI50: 50.1 µM
SF-268
  GI50: 19.9 µM
SF-295
  GI50: 15.8 µM
SF-539
  GI50: 12.6 µM
SNB-75
  GI50: 12.6 µM
U251
  GI50: 19.9 µM
LOX IMVI
  GI50: 5.01 µM
MALME-3M
  GI50: 5.01 µM
M14
  GI50: 6.3 µM
MDA-MB-435
  GI50: 15.8 µM
SK-MEL-28
  GI50: 31.6 µM
UACC-257
  GI50: 100 µM
OVCAR-3
  GI50: 3.16 µM
OVCAR-5
  GI50: 19.9 µM
OVCAR-8
  GI50: 7.94 µM
NCI/ADR-RES
  GI50: 6.3 µM
SK-OV-3
  GI50: 0.39 µM
ACHN
  GI50: 0.15 µM
SN12C
  GI50: 6.3 µM
UO-31
  GI50: 1.99 µM
PC-3
  GI50: 50.1 µM
DU-145
  GI50: 1.58 µM
HS 578T
  GI50: 6.3 µM
BT-549
  GI50: 39.8 µM
T-47D
  GI50: 3.16 µM
[1]; Homo sapiens
  CC50: > 100 µM
  GI50: 27.9 µM
[1]
  GI50: 27.9 µM
  TGI: 96.57 µM
[2]; Homo sapiens
  CC50: 97.7 µM
  GI50: 13.1 µM
[2]
  GI50: 13.1 µM
  TGI: 73.76 µM
[3]; Homo sapiens
  CC50: > 100 µM
  GI50: 51.7 µM
[3]
  GI50: 51.7 µM
  TGI: c (Compounds showed values > 100 μM)
[4]; Homo sapiens
  CC50: > 100 µM
  GI50: 17 µM
[4]
  GI50: 17 µM
  TGI: 82.11 µM
[5]; Homo sapiens
  CC50: 97.1 µM
[5]
  GI50: 5.52 µM
  TGI: 74.41 µM
59 cancer cell lines; full panel mean-graph midpoint
  TGI MG_MID: 66.3 µM
59 cancer cell lines; full panel mean-graph midpoint, listed as erlotinib
  TGI MG_MID: 14.3 µM
59 cancer cell lines; [6]
  GI50: 7.68 µM
59 cancer cell lines; [7]
  CC50: 95.6 µM
59 cancer cell lines; read-out: LC50 MG_MID, full panel mean-graph midpoint, listed as erlotinib
  CC50: 14.3 µM
HL-60(TB)
  GI50: 5.01 µM

Source: paper PMC11702208 (RSC Advances, 2025)
